Common to all, as to assay: NCI-60 cell line screen, 48 h
For assay [1], the system named is 786-0 renal.
Assay [2] has as its system A549 NSCLC.
Assay [3] deals with COLO 205 colon.
In assay [4] the test system is DLD-1 colon.
Assay [5] has as its system HCT-116 colon.
The subject of assay [6] is IGROV1 ovarian.
For assay [7], the system named is LOX IMVI melanoma.
The subject of assay [8] is NCI-H522 lung.
Assay [9] concerns OVCAR-5 ovarian.
The test system of assay [10] is OVCAR-8 ovarian.
Assay [11] has as its system RXF 393 renal.
The test system of assay [12] is SK-MEL-2 melanoma.
For assay [13], the system named is U251 CNS.
For assay [14], the system named is UACC-257 melanoma.
Assay [15] has as its system SF-295 CNS.
Assay [16] relates to SN12C renal.

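All cell lines were grown in 96-well plates and treated with compound for 48 hours. TGI is the concentration that stops growth completely.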

In the case of `CCOc1ccc(NC(=O)/C(Cc2nc3ccccc3[nH]c2=O)=N\O)cc1`, the TGI in [1], in assay [2], in assay [3], in assay [4], in assay [5] and in assay [6] was > 100 µM in each case. For the same compound, the TGI in [7], in assay [8], in assay [9], in [10], in [11] and in assay [12] was > 100 µM in each case. Besides, the TGI in assay [13] and in assay [14] was > 100 µM throughout.
For `CCOc1ccccc1NC(=O)CSc1nnc(Cc2ccccc2)o1`, the TGI in assay [1] was 44.8 µM; in assay [2], > 100 µM; in assay [3], 36.5 µM; in assay [4], 55.4 µM; in assay [5], 84.5 µM; in [6] it was > 100 µM. Also, the TGI was 40 µM in [7]; 40.7 µM in assay [8]; > 100 µM in assay [9]; 54.8 µM in [10]; 55.3 µM in assay [11]; > 100 µM in assay [15]. The TGI was determined as 63 µM in assay [12], 64.9 µM in assay [16], 41 µM in assay [13] and 98.6 µM in assay [14].
As for `CC(=O)CC(=O)ON(C)C(C)=O`, the TGI in assay [1], in [2], in assay [3], in [4], in assay [5] and in [6] was > 100 µM throughout. Moreover, the TGI in assay [7], in assay [8], in assay [9], in [10], in assay [11] and in assay [15] was > 100 µM throughout. Also, the values for the TGI in assay [16], in assay [13] and in assay [14] were > 100 µM, > 100 µM and 56.4 µM, respectively.
`Cc1cc(N(CCC#N)CCC#N)ccc1/C=C(\NC(=O)/C=C/c1ccccc1)NC(=O)Nc1ccccc1C`: the TGI in assay [1], in assay [2], in assay [3], in assay [4], in [5] and in assay [6] was > 100 µM in each case. In addition, the TGI in assay [7] is > 100 µM; in assay [9], > 100 µM; in assay [10] it was > 100 µM; in assay [11], 63.4 µM; in [15], > 100 µM; in [12], > 100 µM. Further, the values for the TGI in assay [16], in assay [13] and in assay [14] were > 100 µM, 42.7 µM and > 100 µM, respectively.
Regarding `CC(C)NC1CCCCC2c3cc(F)ccc3[C@]12O` (some centres not stated), the TGI in [1], in [2], in [3], in assay [4], in assay [5] and in assay [6] was > 100 µM each time. Moreover, the TGI in [7], in [8], in [9], in [10], in [11] and in assay [15] was > 100 µM each time. In addition, the TGI in [12], in [16], in [13] and in assay [14] was > 100 µM in each case.
Turning to `CC(=O)OC1COC(n2c(O)c(N=Nc3ccc([N+](=O)[O-])cc3)c3cc(Br)c([N+](=O)[O-])cc32)C(OC(C)=O)C1OC(C)=O` (configuration not stated), the TGI in assay [1] was > 100 µM; in assay [2] it was > 100 µM; in assay [3], > 100 µM; in assay [4], > 100 µM; in assay [5], > 100 µM; in assay [6], 70.3 µM. Also, the TGI is > 100 µM in [7]; > 100 µM in [8]; > 100 µM in [9]; > 100 µM in assay [10]; 89.8 µM in [11]; 67.1 µM in assay [15]. In addition, the TGI in [12], in assay [16], in assay [13] and in assay [14] was > 100 µM throughout.
On to `CCN1C(=O)/C(=C\c2coc3ccccc3c2=O)SC1=S`, for which the TGI in assay [1], in [2], in assay [3], in [4], in [5] and in [6] was > 100 µM throughout. The TGI in assay [7], in assay [8], in assay [9], in [10], in [11] and in [15] was > 100 µM throughout. Besides, the TGI in assay [12], in assay [16], in assay [13] and in assay [14] was > 100 µM in each case.
Regarding `CC(/C=C/c1ccccc1)=N\N=C(C)\C=C\c1ccccc1`, the TGI in assay [1], in [2], in assay [4], in [5], in assay [6] and in assay [7] was > 100 µM throughout. Moreover, the TGI in assay [8], in assay [9], in [10], in [15], in [12] and in assay [16] was > 100 µM each time. The TGI in assay [13] and in assay [14] was > 100 µM in each case.
With `COc1ccc2c(c1)CC[C@@H]1C2CC[C@]2(C)C(=N\O)/C(=N/O)CC12` (some centres not stated), the TGI stood at 31.8 µM in assay [1]; 24.7 µM in assay [2]; 31.6 µM in assay [3]; 36.6 µM in assay [4]; 29.5 µM in assay [5]; 10 µM in [6]. In addition, the TGI in assay [7] was 6.11 µM; in assay [8], 11.5 µM; in [9], 25.8 µM; in assay [10], 33.7 µM; in assay [15] it was 23.9 µM; in assay [12] it was 26.9 µM. The figures for the TGI in assay [16], in assay [13] and in [14] were 36.5 µM, 28.7 µM and 32.9 µM, respectively.
